Measured values reported in patent US20190119200A1, “TERTIARY AMIDES AND METHOD OF USE” (AbbVie Inc., priority 2016, published 2019).

How the values were obtained:
[1] = test system: LPA-induced MCP-1 in NRK-49F cells; test: LPA-induced MCP-1 AlphaLISA assay; assay type: cell-based; conditions: Rattus norvegicus, final LPA 10 μM, 7 hours; for Emax: read-out: Maximum Inhibition
Protocol: Two days prior to the experiment, NRK-49F cells were plated at 8,000 cells/well in 100 μL of growth medium [DMEM (Life Technologies #11995) with 5% dFBS (Life Technologies #30067-334), 100 units/mL penicillin/streptomycin (Life Technologies #15140122)] in 96-well clear flat bottom polystyrene TC-treated microplate (Corning® #3599) and incubated in humidified 10% CO2 at 37° C. One day prior to the experiment, the cell medium was removed and serum free medium [100 μL/well, DMEM (Life Technologies #11995) with 0.1% fatty acid free BSA (Sigma #A6003)] was added with continued incubation in humidified 10% CO2 at 37° C. overnight. On the day of the assay, test compounds were 1:3 serially diluted in 100% DMSO using a BioTek Precision™ system and then transferred (equivalent volume of DMSO as controls) to a plate in serum free medium [DMEM with 0.1% fatty acid free BSA] using a Biomek® NX workstation to give a 2× compound solution. The cell culture medium was removed, and cells were pre-treated with 50 μL/well of 2× compound in serum free medium [DMEM with 0.1% fatty acid free BSA] at 37° C. for 30 minutes. Following the incubation, 50 μL/well of 20 μM LPA diluted in serum free medium [DMEM with 0.1% fatty acid free BSA] was added to the cells. Serum free medium [DMEM with 0.1% fatty acid free BSA] was used as substitution for low control wells while 20 µM LPA was added to high control wells and test compound wells. 200 µM LPA was added to EC100 wells. Final DMSO concentration was 1% in every well. Final LPA concentration in test compound wells and high control wells was 10 μM. […] After the incubation, cell supernatant was transferred to a new 96 well polypropylene plate (Greiner #651201) where it was sealed and stored at −80° C. On the detection day, 5 μL of thawed cell supernatant was transferred to a new white opaque 384-well microplate (Perkin Elmer #6007299). An AlphaLISA® mouse/rat CCL2/MCP1, Immunoassay Research kit (PerkinElmer #AL509F) was used. A mixture (20 μL/well) of AlphaLISA® Anti-Analyte Accept beads (10 μg/mL final) and Biotinylated Antibody Anti-Analyte (freshly prepared, 1 nM final) was added. The mixture in the wells was mixed and then incubated at room temperature for 1 hour. Then SA-Donor beads (25 μL/well, 40 μg/mL final) were added giving a final volume of 50 μL/well. The contents of the wells were mixed and then incubated at room temperature for 0.5 hour (protect from light). The plate was read using the default Envision™ Alpha protocol (PerkinElmer). IC50 values were calculated from curve fits of the ratio data using a four-parameter logistic Hill equation (Assay Explorer 3.3 Client).

LPAR1 = target: T1, LPAR1 (Homo sapiens, UniProt Q92633); test: LPAR1 FLIPR Assay; assay type: cell-based; conditions: U2OS cells stably expressing LPAR1, LPA (EC80), Calcium 6 FLIPR dye; for Emax: read-out: Maximum Inhibition
T1 construct: host or cells: U2OS
Procedure, shortened: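 U2OS cells stably expressing LPAR1 were loaded with Calcium 6 dye for 2 h at 37° C, preincubated 3 min with compound (11-point 3-fold series), then stimulated with LPA at EC80. Fluorescence at 515-575 nm was recorded by FLIPR; IC50 came from four-parameter logistic fits of ratio data.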

T1 sequence (Q92633 whole entry): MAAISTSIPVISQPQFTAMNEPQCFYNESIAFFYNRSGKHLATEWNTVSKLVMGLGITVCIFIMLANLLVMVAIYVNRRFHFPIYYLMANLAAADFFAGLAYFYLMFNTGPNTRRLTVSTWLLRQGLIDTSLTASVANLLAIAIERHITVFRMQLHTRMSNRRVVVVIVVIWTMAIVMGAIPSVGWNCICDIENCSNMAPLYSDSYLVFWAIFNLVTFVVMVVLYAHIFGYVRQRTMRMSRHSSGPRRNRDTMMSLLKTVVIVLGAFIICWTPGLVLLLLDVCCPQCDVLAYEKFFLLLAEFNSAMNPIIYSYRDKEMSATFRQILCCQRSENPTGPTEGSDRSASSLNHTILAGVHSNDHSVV

Row | Structure (SMILES) | IC50 [1] | Emax [1] | IC50 (LPAR1) | Emax (LPAR1)
1 | COc1cc(C(=O)N(CCCCC(=O)O)CCc2ccccc2)cc(OC)c1C [Example 95, 5-[(3,5-dimethoxy-4-methylbenzoyl)(2-phenylethyl)amino]pentanoic Acid] | > 10000 nM | 18% | > 30000 nM | 10%
2 | COc1cc(C(=O)N(CCCCC(=O)O)CCCCc2ccccc2)cc(OC)c1C [Example 96, 5-[(3,5-dimethoxy-4-methylbenzoyl)(4-phenylbutyl)amino]pentanoic Acid] | > 10000 nM | 52% | 19900 nM | 62%
3 | CCCCC(C)(CCCN(CCCc1ccccc1)C(=O)c1cc(OC)c(C)c(OC)c1)C(=O)O (stereo not shown) [Example 97, 2-{3-[(3,5-dimethoxy-4-methylbenzoyl)(3-phenylpropyl)amino]propyl}-2-methylhexanoic Acid] | 36 nM | 94% | 116 nM | 97%
4 | COc1ccc(C2(C(=O)N(CCCCC(=O)O)CCCc3cccc(Cl)c3)CC2)cc1 [Example 102, 5-{[3-(3-chlorophenyl)propyl][1-(4-methoxyphenyl)cyclopropane-1-carbonyl]amino}pentanoic Acid] | 1550 nM | 80% | 47 nM | 85%
5 | COc1ccc(C2(C(=O)N(CCCCC(=O)O)CCCc3ccccc3)CC2)c(F)c1 [Example 103, 5-{[1-(2-fluoro-4-methoxyphenyl)cyclopropane-1-carbonyl](3-phenylpropyl)amino}pentanoic Acid] | 5460 nM | 62% | 68 nM | 75%
6 | CCC1CCC(NC(=O)CN(CCCc2ccccc2)C(=O)c2cc(OC)c(C)c(OC)c2)(C(=O)O)CC1 (stereo not shown) [Example 104, 1-{[N-(3,5-dimethoxy-4-methylbenzoyl)-N-(3-phenylpropyl)glycyl]amino}-4-ethylcyclohexane-1-carboxylic Acid] | 2900 nM | 74% | 94 nM | 95%
7 | COc1ccc(C2(C(=O)N(CCCCC(=O)O)CCCc3ccccc3)CC2)cc1Cl [Example 107, 5-{[1-(3-chloro-4-methoxyphenyl)cyclopropane-1-carbonyl](3-phenylpropyl)amino}pentanoic Acid] | 3590 nM | 71% | 78 nM | 85%
8 | COc1cc(C(=O)N(CCCc2ccccc2Cl)CCSCC(=O)O)cc(OC)c1C [Example 112, [(2-{[3-(2-chlorophenyl)propyl](3,5-dimethoxy-4-methylbenzoyl)amino}ethyl)sulfanyl]acetic Acid] | 996 nM | 78% | 315 nM | 77%
9 | COc1cc(C(=O)N(CCCc2c(F)cccc2F)CCSCC(=O)O)cc(OC)c1C [Example 113, [(2-{[3-(2,6-difluorophenyl)propyl](3,5-dimethoxy-4-methylbenzoyl)amino}ethyl)sulfanyl]acetic Acid] | 1010 nM | 86% | 32 nM | 87%
10 | COc1cc(C(=O)N(CCCCC(=O)NS(=O)(=O)C2CC2)CCCc2ccccc2)cc(OC)c1C [Example 119, N-{5-[(cyclopropanesulfonyl)amino]-5-oxopentyl}-3,5-dimethoxy-4-methyl-N-(3-phenylpropyl)benzamide] | 1170 nM | 80% | 97 nM | 92%
11 | COc1cc(C(=O)N(CCCc2ccccc2)C[C@H](O)CCC(=O)O)cc(OC)c1C [Example 120, (4R)-5-[(3,5-dimethoxy-4-methylbenzoyl)(3-phenylpropyl)amino]-4-hydroxypentanoic Acid] | 5240 nM | 65% | 39 nM | 81%
12 | CCS(=O)(=O)NC(=O)CCCCN(CCCc1ccccc1)C(=O)c1cc(OC)c(C)c(OC)c1 [Example 123, N-{5-[(ethanesulfonyl)amino]-5-oxopentyl}-3,5-dimethoxy-4-methyl-N-(3-phenylpropyl)benzamide] | 793 nM | 85% | 46 nM | 94%
13 | COc1cc(C(=O)N(CCCCC(=O)NS(=O)(=O)C(C)C)CCCc2ccccc2)cc(OC)c1C [Example 124, 3,5-dimethoxy-4-methyl-N-{5-oxo-5-[(propane-2-sulfonyl)amino]pentyl}-N-(3-phenylpropyl)benzamide] | 1150 nM | 88% | 59 nM | 92%
14 | COc1cc(C(=O)N(CCCc2cc(F)cc(F)c2)CCSCC(=O)O)cc(OC)c1C [Example 125, [(2-{[3-(3,5-difluorophenyl)propyl](3,5-dimethoxy-4-methylbenzoyl)amino}ethyl)sulfanyl]acetic Acid] | > 10000 nM | 53% | > 10000 nM | 32%
15 | COc1cc(C(=O)N(CCCCC(=O)O)CCCc2cc(F)cc(F)c2)cc(OC)c1C [Example 126, 5-{[3-(3,5-difluorophenyl)propyl](3,5-dimethoxy-4-methylbenzoyl)amino}pentanoic Acid] | 3890 nM | 75% | 119 nM | 74%
16 | COc1cc(C(=O)N(CCCc2cc(Cl)cc(Cl)c2)CCOCC(=O)O)cc(OC)c1C [Example 127, (2-{[3-(3,5-dichlorophenyl)propyl](3,5-dimethoxy-4-methylbenzoyl)amino}ethoxy)acetic Acid] | > 10000 nM | 14% | > 10000 nM | 7%
17 | COc1cc(OC)cc(C(=O)N(CCCCC(=O)O)CCCc2ccc(C)o2)c1 [Example 133, 5-{(3,5-dimethoxybenzoyl)[3-(5-methylfuran-2-yl)propyl]amino}pentanoic Acid] | 3190 nM | 68% | 46 nM | 78%
18 | COc1cc(OC)cc(C(=O)N(CCCCC(=O)O)CCCc2ccccc2Cl)c1 [Example 135, 5-{[3-(2-chlorophenyl)propyl](3,5-dimethoxybenzoyl)amino}pentanoic Acid] | > 10000 nM | 25% | > 10000 nM | 32%
19 | COc1cc(OC)cc(C(=O)N(CCCCC(=O)O)CCCc2cc(F)cc(F)c2)c1 [Example 136, 5-{[3-(3,5-difluorophenyl)propyl](3,5-dimethoxybenzoyl)amino}pentanoic Acid] | > 10000 nM | 47% | > 10000 nM | 15%
20 | COc1cc(OC)cc(C(=O)N(CCCCC(=O)O)CCCc2c(F)cccc2F)c1 [Example 137, 5-{[3-(2,6-difluorophenyl)propyl](3,5-dimethoxybenzoyl)amino}pentanoic Acid] | > 10000 nM | 28% | 92 nM | 64%
21 | COc1cc(C(=O)N(CCCCC(=O)NS(=O)(=O)c2cccnc2)CCCc2ccccc2)cc(OC)c1C [Example 142, 3,5-dimethoxy-4-methyl-N-{5-oxo-5-[(pyridine-3-sulfonyl)amino]pentyl}-N-(3-phenylpropyl)benzamide] | 831 nM | 90% | 76 nM | 88%
22 | COc1cc(C(=O)N(CCCCC(=O)NS(=O)(=O)c2ccncc2)CCCc2ccccc2)cc(OC)c1C [Example 143, 3,5-dimethoxy-4-methyl-N-{5-oxo-5-[(pyridine-4-sulfonyl)amino]pentyl}-N-(3-phenylpropyl)benzamide] | 1350 nM | 66% | 81 nM | 83%
